IC50, KF and Relative potency data for 15 compounds are collected here from ChEMBL document CHEMBL1126418, “Synthesis of chemically stable 9-substituted carbacyclin derivatives and their biological use” (Bioorg Med Chem Lett, 1992).

pIC50: −log10 of the molar value.

The species entered for assay [1] is Homo sapiens. Put plainly: The compound was tested for inhibition of blood platelet aggregation induced by ADP. Type of assay: functional, organism-based.
In assay [2] the target is Prostacyclin receptor (Homo sapiens) (UniProt P43119). Put plainly: Affinity for Prostaglandin I2 receptor. The arrangement: unit not given here.
Chain of Prostacyclin receptor (Homo sapiens) (P43119 whole entry): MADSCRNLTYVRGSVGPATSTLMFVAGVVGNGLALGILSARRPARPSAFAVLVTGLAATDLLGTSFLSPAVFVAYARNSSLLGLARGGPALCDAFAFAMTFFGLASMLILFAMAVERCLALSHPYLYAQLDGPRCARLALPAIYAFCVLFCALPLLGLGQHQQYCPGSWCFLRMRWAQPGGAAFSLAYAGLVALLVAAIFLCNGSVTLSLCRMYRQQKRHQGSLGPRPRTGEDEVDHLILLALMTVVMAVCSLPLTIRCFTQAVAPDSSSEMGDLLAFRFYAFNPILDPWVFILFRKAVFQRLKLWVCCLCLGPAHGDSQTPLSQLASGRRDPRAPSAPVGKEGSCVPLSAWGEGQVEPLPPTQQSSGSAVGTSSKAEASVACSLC
Assay [3] is described as follows: Evaluated for the relative potency to that of Iloprost. The assay is classed as functional.
Assay [4] is filed under the species Homo sapiens. Put plainly: Compound was tested for inhibition of blood platelet aggregation induced by ADP; 0.2-0.5*10e-9. Type of assay: functional, organism-based.
The species entered for assay [5] is Homo sapiens. Briefly: The compound was tested for inhibition of blood platelet aggregation induced by ADP; 100-250*10e-9. Type of assay: functional, organism-based.
Assay [6] is filed under the species Homo sapiens. Briefly: The compound was tested for inhibition of blood platelet aggregation induced by ADP; 0.5-2.5*10e-9. The assay is classed as functional, organism-based.

For the compound `CC#CCC(C)[C@H](O)/C=C/[C@H]1[C@H](O)C[C@]2(C#CCCC(=O)O)C/C(=C\CCCC(=O)O)C[C@H]12` (some centres undefined), the pIC50 in the assay filed under Homo sapiens [1] was 5.70. The compound also displayed a KF in assay [2] of 200. Moreover, in assay [3], the Relative potency amounted to 0.0002.

For the compound `CC#CCC(C)[C@H](O)/C=C/[C@H]1[C@H](O)C[C@]2(C#CCCCN=[N+]=[N-])C/C(=C\CCCC(=O)O)C[C@H]12` (some centres undefined), the pIC50 in the assay filed under Homo sapiens [1] is 7.70. Besides, in assay [2], the KF turned out to be 6. Besides, the Relative potency in assay [3] worked out at 0.1.

In turn, `CC#CCC(C)[C@H](O)/C=C/[C@H]1[C@H](O)C[C@]2(C#CCCCO)C/C(=C/CCCC(=O)O)C[C@H]12` (some centres undefined) gave a pIC50 in the assay filed under Homo sapiens [1] of 6.70. In addition, the KF in assay [2] came out at 300. Further, in assay [3], the Relative potency was 0.004.

Consider `CC#CCC(C)[C@H](O)/C=C/[C@@H]1[C@H]2C/C(=C/CCCC(=O)O)C[C@H]2C[C@H]1O` (stereo in doubt; 1) [ILOPROST], for which the pIC50 in the assay listed under Homo sapiens [4] is 9.70. In assay [2], this compound gave a KF of 1. For the same compound, the Relative potency in assay [3] was found to be 1.

Regarding `CC#CCC(C)[C@H](O)/C=C/[C@H]1[C@H](O)C[C@]2(C#CCCCI)C/C(=C/CCCC(=O)O)C[C@H]12` (some centres undefined), the pIC50 in the assay filed under Homo sapiens [1] is 6.70. In assay [2], this compound showed a KF of more than 100. The Relative potency in assay [3] was determined as 0.001.

`CC#CCC(C)[C@H](O)/C=C/[C@H]1[C@H](O)C[C@]2(CCCCCO)C/C(=C/CCCC(=O)O)C[C@H]12` (some centres undefined) had a negative-log IC50 (pIC50) in the assay listed under Homo sapiens [1] of 4.96. In assay [2], the KF entry is “n.k”. Further, the Relative potency in assay [3] was determined as 4e-05.

In the assay filed under Homo sapiens [5], `CC#CCC(C)[C@H](O)/C=C/[C@H]1[C@H](O)C[C@]2(C#CCCCBr)C/C(=C/CCCC(=O)O)C[C@H]12` (some centres undefined) gave a pIC50 of 7.00. This compound came in with a Relative potency in assay [3] of 0.001.

With `CC#CCC(C)[C@H](O)/C=C/[C@H]1[C@H](O)C[C@]2(C#CCCCI)C/C(=C\CCCC(=O)O)C[C@H]12` (some centres undefined), the pIC50 in the assay listed under Homo sapiens [1] was 8.30. For the same compound, in assay [2], the KF is 5.6. Moreover, the Relative potency in assay [3] was 1.

The compound `CC#CCC(C)[C@H](O)/C=C/[C@H]1[C@H](O)C[C@]2(CCCCCN=[N+]=[N-])C/C(=C\CCCC(=O)O)C[C@H]12` (some centres undefined) had a pIC50 in the assay filed under Homo sapiens [1] of 6.30. For the same compound, the KF in assay [2] came to 29. Besides, in assay [3], the Relative potency came to 0.0005.

Consider `CC#CCC(C)[C@H](O)/C=C/[C@H]1[C@H](O)C[C@]2(C#CCCCN=[N+]=[N-])C/C(=C/CCCC(=O)O)C[C@H]12` (some centres undefined), for which the pIC50 in the assay listed under Homo sapiens [1] is 6.07. For the same compound, the KF in assay [2] came to 80. Moreover, in assay [3], the Relative potency is 0.003.

`CC#CCC(C)[C@H](O)/C=C/[C@H]1[C@H](O)C[C@]2(CCC#CCCCO)C/C(=C\CCCC(=O)O)C[C@H]12` (some centres undefined) had a negative logarithm of the IC50 (pIC50) in the assay filed under Homo sapiens [1] of 6.40. In assay [2], this compound showed a KF of 180. This compound had a Relative potency in assay [3] of 0.002.

In the assay filed under Homo sapiens [1], `CC#CCC(C)[C@H](O)/C=C/[C@@H]1[C@H]2CC(=CCCCC(=O)O)C[C@H]2C[C@H]1O` (some centres undefined) [ILOPROST] gave a pIC50 of 5.36. In addition, the KF in assay [2] was determined as 11. In assay [3], this compound registered a Relative potency of 0.0001.

As for `CC#CCC(C)[C@H](O)/C=C/[C@H]1[C@H](O)C[C@]2(C#CCCCBr)C/C(=C\CCCC(=O)O)C[C@H]12` (some centres undefined), the pIC50 in the assay listed under Homo sapiens [6] is 9.30. In assay [2], this compound registered a KF of 3. The same compound returned a Relative potency in assay [3] of 1.

On to `CC#CCC(C)[C@H](O)/C=C/[C@H]1[C@H](O)C[C@]2(C#CCCCO)C/C(=C\CCCC(=O)O)C[C@H]12` (some centres undefined), for which, in the assay listed under Homo sapiens [1], the pIC50 is 8.00. The compound further had a KF in assay [2] of 25. The Relative potency in assay [3] amounted to 0.2.

`CC#CCC(C)[C@H](O)/C=C/[C@H]1[C@H](O)C[C@]2(CCCCCO)C/C(=C\CCCC(=O)O)C[C@H]12` (some centres undefined) gave a pIC50 in the assay filed under Homo sapiens [1] of 5.15. Also, in assay [2], the KF stood at 130. Also, the Relative potency in assay [3] was found to be 0.0006.
